Measured values: PubChem BioAssay (NCI)
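All cell lines were grown in 96-well plates and treated with compound for 48 hours. TGI is the concentration that stops growth completely.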

Assays:
Experiment in all cases: NCI anticancer screen, dose series, 48 h
NCI-H460 lung = test system: NCI-H460 lung
BT-549 breast = test system: BT-549 breast
HOP-92 NSCLC = test system: HOP-92 NSCLC
NCI-H522 lung = test system: NCI-H522 lung
A549 NSCLC = test system: A549 NSCLC
RPMI-8226 leukemia = test system: RPMI-8226 leukemia
MDA-MB-435 = test system: MDA-MB-435
HOP-62 NSCLC = test system: HOP-62 NSCLC
HS 578T breast = test system: HS 578T breast
ACHN renal = test system: ACHN renal
MDA-MB-231 breast = test system: MDA-MB-231 breast
HCT-15 colon = test system: HCT-15 colon
MOLT-4 leukemia = test system: MOLT-4 leukemia
OVCAR-8 ovarian = test system: OVCAR-8 ovarian
CCRF-CEM leukemia = test system: CCRF-CEM leukemia
SK-OV-3 ovarian = test system: SK-OV-3 ovarian
RXF 393 renal = test system: RXF 393 renal
SF-295 CNS = test system: SF-295 CNS
HCC-2998 colon = test system: HCC-2998 colon
OVCAR-5 ovarian = test system: OVCAR-5 ovarian
SK-MEL-5 melanoma = test system: SK-MEL-5 melanoma
OVCAR-3 ovarian = test system: OVCAR-3 ovarian
K-562 leukemia = test system: K-562 leukemia
SW-620 colon = test system: SW-620 colon
MDA-N = test system: MDA-N
T-47D breast = test system: T-47D breast
IGROV1 ovarian = test system: IGROV1 ovarian
UO-31 renal = test system: UO-31 renal
CAKI-1 renal = test system: CAKI-1 renal
M14 melanoma = test system: M14 melanoma
NCI-H23 lung = test system: NCI-H23 lung
PC-3 prostate = test system: PC-3 prostate
UACC-257 melanoma = test system: UACC-257 melanoma
SK-MEL-2 melanoma = test system: SK-MEL-2 melanoma
SN12C renal = test system: SN12C renal
EKVX NSCLC = test system: EKVX NSCLC
SF-268 CNS = test system: SF-268 CNS
SK-MEL-28 melanoma = test system: SK-MEL-28 melanoma
OVCAR-4 ovarian = test system: OVCAR-4 ovarian
TK-10 renal = test system: TK-10 renal
786-0 renal = test system: 786-0 renal
DU-145 prostate = test system: DU-145 prostate
NCI/ADR-RES ovarian = test system: NCI/ADR-RES ovarian
KM12 colon = test system: KM12 colon
COLO 205 colon = test system: COLO 205 colon
A498 renal = test system: A498 renal
HT29 colon = test system: HT29 colon
HL-60(TB) leukemia = test system: HL-60(TB) leukemia
SR leukemia = test system: SR leukemia
MALME-3M melanoma = test system: MALME-3M melanoma
SNB-19 CNS = test system: SNB-19 CNS
LOX IMVI melanoma = test system: LOX IMVI melanoma
MCF7 breast = test system: MCF7 breast
NCI-H226 lung = test system: NCI-H226 lung
U251 CNS = test system: U251 CNS
UACC-62 melanoma = test system: UACC-62 melanoma
HCT-116 colon = test system: HCT-116 colon
SF-539 CNS = test system: SF-539 CNS
SNB-75 CNS = test system: SNB-75 CNS

Measured: TGI

COc1ccc2cc(-c3ccc(OC)c(OC)c3)c(=O)oc2c1
68.3 µM: RXF 393 renal
> 100 µM: NCI-H460 lung | BT-549 breast | HOP-92 NSCLC | NCI-H522 lung | A549 NSCLC | RPMI-8226 leukemia | MDA-MB-435 | HOP-62 NSCLC | HS 578T breast | ACHN renal | MDA-MB-231 breast | HCT-15 colon | MOLT-4 leukemia | OVCAR-8 ovarian | CCRF-CEM leukemia | SK-OV-3 ovarian | SF-295 CNS | HCC-2998 colon | OVCAR-5 ovarian | SK-MEL-5 melanoma | OVCAR-3 ovarian | K-562 leukemia | SW-620 colon | MDA-N | T-47D breast | IGROV1 ovarian | UO-31 renal | CAKI-1 renal | M14 melanoma | NCI-H23 lung | PC-3 prostate | UACC-257 melanoma | SK-MEL-2 melanoma | SN12C renal | EKVX NSCLC | SF-268 CNS | SK-MEL-28 melanoma | OVCAR-4 ovarian | TK-10 renal | 786-0 renal | DU-145 prostate | NCI/ADR-RES ovarian | KM12 colon | COLO 205 colon | A498 renal | HT29 colon | HL-60(TB) leukemia | SR leukemia | MALME-3M melanoma | SNB-19 CNS | LOX IMVI melanoma | MCF7 breast | NCI-H226 lung | U251 CNS | UACC-62 melanoma | HCT-116 colon | SF-539 CNS

Cn1c2c(c3c(=O)[nH]ncc31)CCc1ccccc1-2
75 µM: MOLT-4 leukemia
87.8 µM: SNB-75 CNS
55.2 µM: SR leukemia
89 µM: NCI/ADR-RES ovarian
60.2 µM: IGROV1 ovarian
45.3 µM: TK-10 renal
94.4 µM: NCI-H226 lung
88.5 µM: MALME-3M melanoma
59.1 µM: UO-31 renal
60.7 µM: CCRF-CEM leukemia
35 µM: LOX IMVI melanoma
79 µM: MCF7 breast
47.3 µM: MDA-MB-231 breast
60.6 µM: HL-60(TB) leukemia
57.1 µM: SK-MEL-2 melanoma
71.4 µM: NCI-H23 lung
67.3 µM: HCT-15 colon
91 µM: MDA-N
> 100 µM: HOP-92 NSCLC | NCI-H522 lung | A549 NSCLC | MDA-MB-435 | HOP-62 NSCLC | HS 578T breast | OVCAR-8 ovarian | SK-OV-3 ovarian | SF-295 CNS | OVCAR-5 ovarian | K-562 leukemia | SW-620 colon | T-47D breast | CAKI-1 renal | PC-3 prostate | SN12C renal | EKVX NSCLC | SF-268 CNS | OVCAR-4 ovarian | DU-145 prostate | HT29 colon | SNB-19 CNS | U251 CNS | SF-539 CNS
78.2 µM: BT-549 breast
81.1 µM: COLO 205 colon
39.6 µM: RXF 393 renal
72.2 µM: OVCAR-3 ovarian
35.1 µM: SK-MEL-5 melanoma
73.4 µM: 786-0 renal
45.7 µM: A498 renal
41.7 µM: M14 melanoma
40.6 µM: UACC-257 melanoma
70.8 µM: SK-MEL-28 melanoma
72.4 µM: ACHN renal
67.4 µM: RPMI-8226 leukemia
33.6 µM: NCI-H460 lung
64.2 µM: HCT-116 colon
54.9 µM: KM12 colon

Cc1cc(C)nc(NC(=S)Nc2cccc(Cl)c2)c1
> 58.3 µM: MCF7 breast
> 100 µM: SNB-75 CNS | NCI-H460 lung | BT-549 breast | A549 NSCLC | RPMI-8226 leukemia | MDA-MB-435 | HOP-62 NSCLC | HS 578T breast | ACHN renal | MDA-MB-231 breast | HCT-15 colon | MOLT-4 leukemia | OVCAR-8 ovarian | CCRF-CEM leukemia | SK-OV-3 ovarian | RXF 393 renal | SF-295 CNS | HCC-2998 colon | OVCAR-5 ovarian | OVCAR-3 ovarian | K-562 leukemia | SW-620 colon | MDA-N | T-47D breast | IGROV1 ovarian | UO-31 renal | M14 melanoma | NCI-H23 lung | PC-3 prostate | UACC-257 melanoma | SK-MEL-2 melanoma | SN12C renal | EKVX NSCLC | SF-268 CNS | SK-MEL-28 melanoma | OVCAR-4 ovarian | TK-10 renal | 786-0 renal | DU-145 prostate | NCI/ADR-RES ovarian | KM12 colon | COLO 205 colon | A498 renal | HT29 colon | HL-60(TB) leukemia | SR leukemia | MALME-3M melanoma | SNB-19 CNS | LOX IMVI melanoma | NCI-H226 lung | U251 CNS | UACC-62 melanoma | HCT-116 colon | SF-539 CNS
> 86.5 µM: CAKI-1 renal
